According to ChEMBL document CHEMBL5223100, “Homobivalent, Trivalent, and Covalent PROTACs: Emerging Strategies for Protein Degradation” (J Med Chem, 2022):
One block for each compound: values may come before it.

How the values were obtained:
[1] = test system: SU-DHL-1; experiment: Antiproliferative activity against human SU-DHL-1 cells; format: functional, cell-based
[2] = target: ALK tyrosine kinase receptor (Homo sapiens) (UniProt Q9UM73); experiment: Induction of ALK degradation in human SU-DHL-1 cells assessed as maximum degradation at 3 uM after 12 hrs relative to control; format: cell-based
ALK tyrosine kinase receptor (Homo sapiens), sequence (Q9UM73 19-1620 limits assumed): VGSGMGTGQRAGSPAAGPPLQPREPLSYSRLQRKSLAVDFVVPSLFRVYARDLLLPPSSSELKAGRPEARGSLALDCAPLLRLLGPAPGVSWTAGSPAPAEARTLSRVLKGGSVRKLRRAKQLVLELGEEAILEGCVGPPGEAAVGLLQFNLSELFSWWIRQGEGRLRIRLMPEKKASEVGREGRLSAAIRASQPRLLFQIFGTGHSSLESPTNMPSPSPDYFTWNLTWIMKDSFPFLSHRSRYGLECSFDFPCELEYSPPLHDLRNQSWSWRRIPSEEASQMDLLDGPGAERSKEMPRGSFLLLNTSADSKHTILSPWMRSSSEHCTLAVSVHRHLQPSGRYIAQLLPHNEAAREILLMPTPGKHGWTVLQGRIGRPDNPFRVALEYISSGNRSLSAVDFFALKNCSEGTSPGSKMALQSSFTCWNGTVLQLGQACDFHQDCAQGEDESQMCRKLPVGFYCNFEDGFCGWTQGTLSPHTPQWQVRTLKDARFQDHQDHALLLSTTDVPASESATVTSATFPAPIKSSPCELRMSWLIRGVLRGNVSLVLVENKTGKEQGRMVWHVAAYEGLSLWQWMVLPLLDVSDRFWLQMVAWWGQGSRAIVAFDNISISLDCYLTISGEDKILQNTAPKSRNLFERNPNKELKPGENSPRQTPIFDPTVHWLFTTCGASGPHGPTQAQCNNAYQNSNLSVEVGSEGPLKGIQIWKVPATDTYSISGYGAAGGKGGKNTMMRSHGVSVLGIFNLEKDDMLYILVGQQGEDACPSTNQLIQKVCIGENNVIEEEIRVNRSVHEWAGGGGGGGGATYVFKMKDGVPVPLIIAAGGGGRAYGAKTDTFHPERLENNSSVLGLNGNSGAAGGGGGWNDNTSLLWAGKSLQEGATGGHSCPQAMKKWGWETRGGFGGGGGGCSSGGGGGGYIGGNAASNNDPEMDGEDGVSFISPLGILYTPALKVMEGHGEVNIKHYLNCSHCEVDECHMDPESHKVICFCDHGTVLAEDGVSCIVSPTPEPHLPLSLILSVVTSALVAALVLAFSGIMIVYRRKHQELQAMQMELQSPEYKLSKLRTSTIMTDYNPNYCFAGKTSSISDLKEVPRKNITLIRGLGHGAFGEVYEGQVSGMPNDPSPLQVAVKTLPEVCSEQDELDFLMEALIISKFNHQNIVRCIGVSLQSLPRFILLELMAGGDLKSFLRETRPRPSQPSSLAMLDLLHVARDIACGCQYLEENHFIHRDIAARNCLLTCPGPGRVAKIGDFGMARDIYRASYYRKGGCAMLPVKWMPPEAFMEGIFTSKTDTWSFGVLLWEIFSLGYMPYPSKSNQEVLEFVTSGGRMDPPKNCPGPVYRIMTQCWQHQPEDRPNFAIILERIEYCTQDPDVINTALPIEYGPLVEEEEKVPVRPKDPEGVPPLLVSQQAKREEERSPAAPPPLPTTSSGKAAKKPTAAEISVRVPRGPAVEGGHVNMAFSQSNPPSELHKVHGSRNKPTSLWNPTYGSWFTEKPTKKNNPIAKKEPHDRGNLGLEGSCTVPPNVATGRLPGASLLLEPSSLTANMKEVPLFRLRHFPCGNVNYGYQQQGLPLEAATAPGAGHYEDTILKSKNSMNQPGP

[3] = target: ALK tyrosine kinase receptor (Homo sapiens) (UniProt Q9UM73); experiment: Induction of ALK degradation in human SU-DHL-1 cells assessed as maximum degradation at 100 nM pretreated with S-Ac-GSH followed by compound addition and measured after 12 hrs relative to control; format: cell-based
[4] = test system: MV4-11; experiment: Antiproliferative activity against human MV4-11 cells
[5] = target: Bromodomain-containing protein 2 (Homo sapiens, UniProt P25440); experiment: Induction of BRD2 degradation in HEK293 cells after 4 hrs; format: cell-based
Bromodomain-containing protein 2, sequence (P25440 whole entry): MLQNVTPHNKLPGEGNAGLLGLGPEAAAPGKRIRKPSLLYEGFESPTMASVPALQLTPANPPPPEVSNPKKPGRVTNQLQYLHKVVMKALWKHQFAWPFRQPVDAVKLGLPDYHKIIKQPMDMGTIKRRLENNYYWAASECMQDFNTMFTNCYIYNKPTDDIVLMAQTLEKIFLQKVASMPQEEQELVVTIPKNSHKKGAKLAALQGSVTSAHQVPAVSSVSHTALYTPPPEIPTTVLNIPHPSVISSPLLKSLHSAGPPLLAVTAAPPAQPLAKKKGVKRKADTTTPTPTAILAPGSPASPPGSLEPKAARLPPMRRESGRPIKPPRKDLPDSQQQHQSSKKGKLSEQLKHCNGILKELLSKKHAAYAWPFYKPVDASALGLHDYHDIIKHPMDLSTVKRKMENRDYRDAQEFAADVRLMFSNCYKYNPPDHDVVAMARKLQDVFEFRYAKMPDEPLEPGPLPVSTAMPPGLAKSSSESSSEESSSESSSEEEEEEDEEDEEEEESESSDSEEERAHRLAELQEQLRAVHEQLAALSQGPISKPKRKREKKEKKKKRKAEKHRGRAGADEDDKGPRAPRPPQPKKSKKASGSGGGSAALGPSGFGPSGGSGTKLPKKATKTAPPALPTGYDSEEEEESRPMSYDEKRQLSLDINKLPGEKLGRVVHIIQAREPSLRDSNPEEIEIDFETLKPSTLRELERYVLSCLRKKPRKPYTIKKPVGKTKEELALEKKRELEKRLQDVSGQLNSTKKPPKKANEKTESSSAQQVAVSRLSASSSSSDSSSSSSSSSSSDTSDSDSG

[6] = target: Bromodomain-containing protein 3 (Homo sapiens, UniProt Q15059); experiment: Induction of BRD3 degradation in HEK293 cells after 4 hrs; format: cell-based
Bromodomain-containing protein 3, sequence (Q15059 whole entry): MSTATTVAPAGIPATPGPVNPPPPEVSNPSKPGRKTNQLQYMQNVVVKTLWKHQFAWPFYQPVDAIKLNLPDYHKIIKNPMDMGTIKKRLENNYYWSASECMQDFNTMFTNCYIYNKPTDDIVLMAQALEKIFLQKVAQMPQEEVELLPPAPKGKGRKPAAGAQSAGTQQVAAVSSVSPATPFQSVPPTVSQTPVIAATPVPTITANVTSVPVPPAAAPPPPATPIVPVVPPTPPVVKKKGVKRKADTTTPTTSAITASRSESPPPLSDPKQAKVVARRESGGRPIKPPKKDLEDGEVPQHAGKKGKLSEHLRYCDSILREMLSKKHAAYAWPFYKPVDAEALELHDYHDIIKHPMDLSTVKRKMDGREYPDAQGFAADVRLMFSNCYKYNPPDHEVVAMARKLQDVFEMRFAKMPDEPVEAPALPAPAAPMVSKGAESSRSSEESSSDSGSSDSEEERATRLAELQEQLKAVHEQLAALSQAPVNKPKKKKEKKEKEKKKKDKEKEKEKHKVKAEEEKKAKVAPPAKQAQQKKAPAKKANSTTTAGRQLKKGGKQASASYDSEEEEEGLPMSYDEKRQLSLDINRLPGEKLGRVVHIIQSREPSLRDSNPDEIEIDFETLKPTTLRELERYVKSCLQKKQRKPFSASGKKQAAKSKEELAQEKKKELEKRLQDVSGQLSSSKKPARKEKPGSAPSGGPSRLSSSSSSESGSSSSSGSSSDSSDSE

[7] = target: T1, Bromodomain-containing protein 4 (Homo sapiens, UniProt O60885); experiment: Induction of BRD4 degradation in HEK293 cells after 4 hrs; format: cell-based
[8] = target: T2, Tyrosine-protein kinase BTK (Homo sapiens, UniProt Q06187); experiment: Induction of BTK degradation in human MINO cells; format: cell-based
T2 sequence (Q06187 whole entry): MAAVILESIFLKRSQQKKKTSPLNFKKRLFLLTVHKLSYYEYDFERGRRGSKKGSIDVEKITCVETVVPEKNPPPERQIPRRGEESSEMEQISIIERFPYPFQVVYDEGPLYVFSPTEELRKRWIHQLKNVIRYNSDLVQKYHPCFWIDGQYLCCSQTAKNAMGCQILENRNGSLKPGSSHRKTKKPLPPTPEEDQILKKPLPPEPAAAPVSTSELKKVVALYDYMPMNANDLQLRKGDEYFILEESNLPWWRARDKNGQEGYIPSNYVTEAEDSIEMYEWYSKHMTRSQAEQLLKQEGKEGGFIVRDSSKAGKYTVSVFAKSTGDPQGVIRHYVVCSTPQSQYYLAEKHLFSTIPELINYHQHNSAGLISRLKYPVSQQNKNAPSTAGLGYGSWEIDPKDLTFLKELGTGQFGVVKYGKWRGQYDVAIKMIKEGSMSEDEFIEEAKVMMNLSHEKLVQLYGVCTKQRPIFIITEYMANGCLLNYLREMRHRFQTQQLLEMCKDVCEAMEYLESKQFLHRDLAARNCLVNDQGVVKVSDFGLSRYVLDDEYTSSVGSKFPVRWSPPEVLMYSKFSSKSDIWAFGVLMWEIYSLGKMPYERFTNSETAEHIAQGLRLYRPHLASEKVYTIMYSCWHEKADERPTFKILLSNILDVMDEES

[9] = target: T2, Tyrosine-protein kinase BTK; experiment: Induction of BTK degradation in human MINO cells assessed as maximum degradation relative to control; format: cell-based
[10] = target: T2, Tyrosine-protein kinase BTK; experiment: Induction of BTK degradation in human K562 cells; format: cell-based
[11] = target: T2, Tyrosine-protein kinase BTK; experiment: Induction of BTK degradation in human K562 cells assessed as maximum degradation relative to control; format: cell-based
[12] = target: T3, Tyrosine-protein kinase Blk (Homo sapiens, UniProt P51451); experiment: Induction of BLK degradation in human K562 cells; format: cell-based
Target sequence in this assay (P51451 whole entry): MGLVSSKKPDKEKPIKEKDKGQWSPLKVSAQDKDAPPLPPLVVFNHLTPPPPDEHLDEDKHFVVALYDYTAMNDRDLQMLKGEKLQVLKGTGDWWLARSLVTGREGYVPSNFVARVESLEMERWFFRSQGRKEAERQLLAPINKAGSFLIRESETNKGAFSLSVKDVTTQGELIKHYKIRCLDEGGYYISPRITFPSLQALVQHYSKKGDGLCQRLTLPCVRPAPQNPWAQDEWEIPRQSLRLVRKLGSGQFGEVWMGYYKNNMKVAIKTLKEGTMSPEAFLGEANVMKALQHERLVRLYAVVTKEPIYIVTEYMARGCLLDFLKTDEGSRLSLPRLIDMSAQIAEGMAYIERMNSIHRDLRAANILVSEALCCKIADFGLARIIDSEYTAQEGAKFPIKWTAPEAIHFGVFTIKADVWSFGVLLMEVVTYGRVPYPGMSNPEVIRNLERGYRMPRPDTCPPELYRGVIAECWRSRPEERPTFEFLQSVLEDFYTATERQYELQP

[13] = target: T3, Tyrosine-protein kinase Blk; experiment: Induction of BLK degradation in human K562 cells assessed as maximum degradation relative to control; format: cell-based
Target sequence in this assay (P51451 2-505 limits assumed): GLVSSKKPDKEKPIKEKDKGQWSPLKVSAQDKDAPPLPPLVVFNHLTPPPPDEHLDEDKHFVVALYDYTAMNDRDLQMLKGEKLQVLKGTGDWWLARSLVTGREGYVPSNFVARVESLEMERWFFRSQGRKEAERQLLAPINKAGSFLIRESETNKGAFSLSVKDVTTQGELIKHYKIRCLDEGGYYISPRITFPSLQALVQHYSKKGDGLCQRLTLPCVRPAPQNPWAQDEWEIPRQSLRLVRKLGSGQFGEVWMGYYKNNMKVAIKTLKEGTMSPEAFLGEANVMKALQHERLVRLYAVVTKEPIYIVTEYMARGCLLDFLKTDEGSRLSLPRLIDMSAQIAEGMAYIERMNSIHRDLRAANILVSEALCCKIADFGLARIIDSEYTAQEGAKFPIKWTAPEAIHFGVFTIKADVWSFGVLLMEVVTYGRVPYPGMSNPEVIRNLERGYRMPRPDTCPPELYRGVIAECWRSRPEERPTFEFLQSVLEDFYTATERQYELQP

[14] = target: Androgen receptor (Homo sapiens) (UniProt P10275); experiment: Induction of AR degradation in human 22Rv1 cells assessed as maximum degradation at 10 uM after 8 hrs relative to control; format: cell-based
[15] = test system: A549; experiment: Antiproliferative activity against human A549 cells; format: functional, cell-based
[16] = test system: Huh-7; experiment: Antiproliferative activity against human Huh-7 cells; format: functional, cell-based
[17] = test system: HepG2; experiment: Antiproliferative activity against human HepG2 cells; format: functional, cell-based
[18] = test system: MCF7; experiment: Antitumor activity against human MCF7 cells xenografted in mouse assessed as tumor growth inhibition; format: functional
[19] = test system: HeLa; experiment: Antiproliferative activity against human HeLa cells; format: functional, cell-based
[20] = target: T1, Bromodomain-containing protein 4; experiment: Induction of BRD4 degradation in human HeLa cells assessed as maximum degradation at 30 nM after 12 hrs relative to control; format: cell-based
[21] = test system: HFF-1; experiment: Antiproliferative activity against human HFF-1 cells; format: functional, cell-based
[22] = target: Transcription intermediary factor 1-alpha (Homo sapiens, UniProt O15164); experiment: Inhibition of His-tagged TRIM24 (unknown origin) expressed in Escherichia coli BL21(DE3)pLysS competent cells using biotinylated-H3K23ac peptide as substrate incubated for 30 mins by Alphascreen assay
[23] = target: Transcription intermediary factor 1-alpha (Homo sapiens) (UniProt O15164); experiment: Induction of TRIM24 degradation in HEK293FT cells assessed as maximum degradation at 5 uM relative to control; format: cell-based

SMILES: Cc1ncsc1-c1ccc(CNC(=O)[C@@H]2C[C@@H](O)CN2C(=O)[C@@H](NC(=O)OCC(C)(COCCOCCOCCNC(=O)C[C@@H]2N=C(c3ccc(Cl)cc3)c3c(sc(C)c3C)-n3c(C)nnc32)COCCOCCOCCNC(=O)C[C@@H]2N=C(c3ccc(Cl)cc3)c3c(sc(C)c3C)-n3c(C)nnc32)C(C)(C)C)cc1
IC50 [4]: 1.1 nM
DC50 [5]: 1.1 nM
DC50 [6]: 3.3 nM
DC50 [7]: 0.7 nM

SMILES: C=CC(=O)N1C[C@@H](n2nc(-c3ccc(Oc4ccccc4)cc3)c3c(N)ncnc32)C[C@H]1C(=O)OCCOCCOCC(=O)N[C@H](C(=O)N1C[C@H](O)C[C@H]1C(=O)NCc1ccc(-c2scnc2C)cc1)C(C)(C)C
DC50 [10]: 136 nM
Emax [11]: 88%
DC50 [12]: 220 nM
Emax [13]: 75%

SMILES: CC1(C)[C@H](NC(=O)c2ccc(OCC(=O)NCCCOCCOCCOCCCN(C(=O)CCl)C(C(=O)NCc3ccccc3)c3ccc(Cl)c(Cl)c3)cc2)C(C)(C)[C@H]1Oc1ccc(C#N)c(Cl)c1 (stereo partly drawn)
Emax [14]: 90%

SMILES: C[C@H]1[C@H](C)CC[C@]2(C(=O)NCCOCCOCCOCCNc3cccc4c3C(=O)N(C3CCC(=O)NC3=O)C4=O)CC[C@]3(C)C(=CC[C@@H]4[C@@]5(C)CC[C@H](O)C(C)(C)[C@@H]5CC[C@]43C)[C@H]12 (stereo partly drawn)
IC50 [15]: 230 nM
IC50 [16]: 390 nM
IC50 [17]: 380 nM

SMILES: Cc1ncsc1-c1ccc(CNC(=O)[C@@H]2C[C@@H](O)CN2C(=O)[C@@H](NC(=O)COCCOCCOCCNC(=O)C[C@@H]2N=C(c3ccc(Cl)cc3)c3c(sc(C)c3C)-n3c(C)nnc32)C(C)(C)C)cc1
TGI [18]: 59.8%

SMILES: Cc1ncsc1-c1ccc([C@H](C)NC(=O)[C@@H]2C[C@@H](OC(=O)CCCCn3cc(CNC(=O)CC[C@H](NC(=O)c4ccc(NCc5cnc6nc(N)[nH]c(=O)c6n5)cc4)C(=O)O)nn3)CN2C(=O)[C@@H](NC(=O)COCCCOCCNC(=O)C[C@@H]2N=C(c3ccc(Cl)cc3)c3c(sc(C)c3C)-n3c(C)nnc32)C(C)(C)C)cc1
IC50 [19]: 246 nM
Emax [20]: 100%
IC50 [21]: > 10000 nM

Next, values leading:

IC50 [1]: 465 nM
Emax [2]: 100%
Emax [3]: 100%
SMILES: Cc1cc(Nc2ncc(Cl)c(Nc3ccccc3S(=O)(=O)C(C)C)n2)c(OC(C)C)cc1C1CCN(CC(=O)NCCNc2cccc3c2C(=O)N(C2CCC(=O)N(C(=O)OCCSSCCn4cc(CNC(=O)CC[C@H](NC(=O)c5ccc(NCc6cnc7nc(N)[nH]c(=O)c7n6)cc5)C(=O)O)nn4)C2=O)C3=O)CC1 (stereo partly drawn)

DC50 [8]: 2.2 nM
Emax [9]: 97%
SMILES: Nc1ncnc2c1c(-c1ccc(Oc3ccccc3)cc1)nn2[C@@H]1CCCN(C(=O)CCCCCCOCCOCCOCCOCCOc2cccc3c2C(=O)N(C2CCC(=O)NC2=O)C3=O)C1 (stereo partly drawn)

IC50 [4]: 94.6 nM
SMILES: Cc1sc2c(c1C)C(c1ccc(Cl)cc1)=N[C@@H](CC(=O)NCCOCCOCCOCC(C)(COCCOCCOCCNC(=O)C[C@@H]1N=C(c3ccc(Cl)cc3)c3c(sc(C)c3C)-n3c(C)nnc31)COC(=O)NCCNc1cccc3c1C(=O)N(C1CCC(=O)NC1=O)C3=O)c1nnc(C)n1-2 (stereo partly drawn)

DC50 [8]: 6 nM
Emax [9]: 85%
SMILES: CC(C)(/C=C(\C#N)C(=O)N1CCC[C@@H](n2nc(-c3ccc(Oc4ccccc4)cc3)c3c(N)ncnc32)C1)CCCOCCOCCOCCOCCOc1cccc2c1C(=O)N(C1CCC(=O)NC1=O)C2=O (stereo partly drawn)

DC50 [8]: 1.9 nM
Emax [9]: 88%
SMILES: Nc1ncnc2c1c(-c1ccc(Oc3ccccc3)cc1)nn2[C@@H]1CCCN(C(=O)/C=C/CCCCOCCOCCOCCOCCOc2cccc3c2C(=O)N(C2CCC(=O)NC2=O)C3=O)C1 (stereo partly drawn)

IC50 [22]: 338 nM
Emax [23]: 72%
SMILES: CCCOc1cccc(Oc2cc3c(cc2NS(=O)(=O)c2cccc(C(=O)NCCOCCOCCOCC(=O)N[C@@H](C(=O)N4C[C@@H](O)C[C@@H]4C(=O)NCc4ccc(-c5scnc5C)cc4)C(C)(C)C)c2)n(C)c(=O)n3C)c1
